The text below walks through data of ChEMBL document CHEMBL1165921, “New potent inhibitors of tyrosinase: novel clues to binding of 1,3,4-thiadiazole-2(3H)-thiones, 1,3,4-oxadiazole-2(3H)-thiones, 4-amino-1,2,4-triazole-5(4H)-thiones, and substituted hydrazides to the dicopper active site” (Bioorg Med Chem, 2010).

pKi: −log10 of the molar value.

This assay concerns the target T1, Tyrosinase (Agaricus bisporus, UniProt O42713).
T1 sequence (O42713 whole entry): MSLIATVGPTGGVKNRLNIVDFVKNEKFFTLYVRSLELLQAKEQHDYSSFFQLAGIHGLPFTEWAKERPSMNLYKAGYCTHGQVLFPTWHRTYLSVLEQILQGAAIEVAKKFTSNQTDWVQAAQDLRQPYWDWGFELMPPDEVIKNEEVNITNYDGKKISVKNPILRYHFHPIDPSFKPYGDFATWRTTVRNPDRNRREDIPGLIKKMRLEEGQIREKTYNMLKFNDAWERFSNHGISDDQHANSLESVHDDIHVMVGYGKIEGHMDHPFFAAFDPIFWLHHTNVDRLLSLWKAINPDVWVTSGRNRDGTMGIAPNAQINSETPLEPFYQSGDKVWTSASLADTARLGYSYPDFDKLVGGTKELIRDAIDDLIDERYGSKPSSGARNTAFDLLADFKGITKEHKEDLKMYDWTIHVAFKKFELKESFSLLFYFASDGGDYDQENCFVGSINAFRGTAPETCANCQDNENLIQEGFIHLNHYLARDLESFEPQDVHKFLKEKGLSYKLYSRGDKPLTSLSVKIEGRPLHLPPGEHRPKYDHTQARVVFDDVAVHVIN
Description: Inhibition of mashroom tyrosinase
In the case of `Nn1c(-c2ccc(O)cc2)n[nH]c1=S`, the negative-log Ki (pKi) was 5.62.

With `S=c1[nH]nc(-c2n[nH]c(=S)s2)s1`, the pKi is 5.54.

`S=c1[nH]nc(-c2ccccc2)o1` showed a negative logarithm of the Ki (pKi) of 5.19.

Regarding `Sc1nnc(Cc2ccccc2)o1`, the pKi was 5.44.

`NNC(=O)c1ccc(OCc2ccccc2)cc1` showed a negative logarithm of the Ki (pKi) of 4.31.

As to `S=c1[nH]nc(-c2n[nH]c(=S)o2)o1`, the pKi is 4.16.

Molecule `S=c1[nH]nc(-c2cccc3ccccc23)o1` gave a negative-log Ki (pKi) of 4.47.

`NNC(=O)c1ccc(O)cc1` had a pKi of 3.75.

For the molecule `NNC(=O)c1ccc2ccccc2c1`, the pKi is 4.00.

`Oc1ccc(-c2nnc(S)o2)cc1` had a pKi of 5.75.

As for `S=c1[nH]nc(C2CCCCC2)o1`, the negative-log Ki (pKi) was 5.31.

`Nn1c(-c2ccncc2)n[nH]c1=S` had a negative logarithm of the Ki (pKi) of 6.00.

`Sc1nnc(-c2ccncc2)o1` gave a pKi of 4.85.

Regarding `S=c1[nH]nc(C(c2ccccc2)c2ccccc2)s1`, the negative logarithm of the Ki (pKi) is 5.28.

`Sc1nnc(C(c2ccccc2)c2ccccc2)o1` gave a negative logarithm of the Ki (pKi) of 5.17.

The molecule `Sc1nnc(CCCc2nnc(S)o2)o1` had a negative-log Ki (pKi) of 5.72.

For the molecule `Sc1nnc(-c2cccc(OCc3ccccc3)c2)o1`, the negative logarithm of the Ki (pKi) was 5.44.

`Sc1nnc(Cc2nnc(S)s2)s1` had a pKi of 6.31.

In the case of `Oc1cccc(-c2nnc(S)o2)c1`, the pKi was 4.73.

Molecule `CC(C)(C)[Si](C)(C)Oc1ccc(-c2nnc(S)s2)cc1` gave a pKi of 6.28.

`Oc1ccc(-c2nnc(S)s2)cc1` gave a pKi of 6.72.

Molecule `S=c1[nH]nc(-c2ccncc2)s1` showed a pKi of 5.61.

`Sc1nnc(-c2ccccc2)s1` had a negative logarithm of the Ki (pKi) of 5.88.

`S=c1[nH]nc(-c2ccc(OCc3ccccc3)cc2)o1`: the pKi is 5.87.

For `Sc1nnc(Cc2nnc(S)o2)o1`, the pKi was 5.35.

For orientation: pKi means the Ki on a negative log10 scale, so that one unit is a factor of ten. Read a low pKi as a large Ki.
